System: female Mastrus ridibundus antenna
Test: coupled gas chromatographic-electroantennographic detection (GC-EAD)
Details: Porapak Q extract of cocoon-spinning larvae; FIG. 2
From the text: Aliquots of 20 CSLHE of Porapak Q-captured volatiles were subjected to analysis by coupled gas chromatographic-electroantennographic detection (GC-EAD) (Arm et al. 1975) using an antenna of Mastrus ridibundus, a specialist parasitic wasp of C. pomonella prepupae, as the electroantennographic detector. Using antennae from female M. ridibundus, instead of C. pomonella larvae, in these analyses was necessary because the antennae of C. pomonella larvae are too small for electrophysiolocial studies. It was also justified because host-seeking female M. ridibundus respond to the pheromone produced by cocoon-spinning C. pomonella larvae. In these GC-EAD analyses, 10 components (8 visible in FIG. 2) elicited responses from M. ridibundus antennae.
FIG. 2 illustrates flame ionization detector (FID) and electroantennographic detector (EAD: female Mastrus ridibundus antenna) responses to 10 CSLHE of Porapak Q extract. Chromatography: Hewlett Packard (HP) 5890A gas chromatograph equipped with a fused silica column (30 m×0.32 mm ID) coated with DB-23 (J & W Scientific, Folsom, Calif. 95630, USA); linear flow velocity of carrier gas: 35 cm/sec; injector and FID detector temperature: 240° C.; temperature program: 1 min at 50° C., 10° C./min to 220° C. […]

Question: With `C=C(C)C1CC=C(C)CC1` (single isomer, unassigned; (+)) [(+)-limonene] as the compound, how does the “electroantennographic detector (EAD) response” value read?
Answer: The value was “not antenally active”.
